Experimental data: patent publication US20150150990A1, “ORAL PHARMACEUTICAL COMPOSITIONS IN A SOLID DISPERSION COMPRISING PREFERABLY POSACONAZOLE AND HPMCAs” (Merck Sharp & Dohme Corp., priority 2008, published 2015)
≈ marks a conversion by molar mass, not a printed value.

Assay: Solubility of posaconazole free base
Type: physicochemical
Experimental: The provision of a solid composition comprising posaconazole suitable for preparing a solid dosage form for oral administration has heretofore been hampered by the poor solubility and weak basicity of the posaconazole free-base compound. Posaconazole is soluble at low pH. For example, in the environment of the stomach (approximately pH 1) posaconazole free base has a solubility of approximately 0.8 mg/mL. However, when posaconazole dissolved in the stomach fluids reaches the environment of the intestines (typically less acidic than about pH 6.4) a substantial amount of the dissolved posaconazole precipitates, hindering absorption in the intestines. It has been determined that in environments where the pH is about pH 6.4 or more basic the solubility of posaconazole free base is less than about 1 microgram/mL.

## CC[C@@H]([C@H](C)O)n1ncn(-c2ccc(N3CCN(c4ccc(OC[C@@H]5CO[C@@](Cn6cncn6)(c6ccc(F)cc6F)C5)cc4)CC3)cc2)c1=O [posaconazole free base, posaconazole]
pH 6.4, pH about 6.4 or more basic
  solubility: < 1 µg/mL
Simulated gastric fluid, environment of the stomach, approximately pH 1
  solubility: ~800 µg/mL (≈ 1140 µM)
